Assay results: patent US4489090A, “Dibenzocycloalkanamido and dibenzothioxanthenyl benzoic acids” (American Cyanamid Company, priority 1983, dated 1984)

Molecular target: T1, fatty acyl CoA:cholesterol acyl transferase (ACAT) (Rattus norvegicus, UniProt O70536)
T1 construct: The supernatant, containing the microsomal fraction, served as the source of the cholesterol-esterifying enzyme; from tissue; host or cells: rat adrenals, homogenate supernatant (1,000 x g) containing the microsomal fraction
T1 sequence (O70536 1-545): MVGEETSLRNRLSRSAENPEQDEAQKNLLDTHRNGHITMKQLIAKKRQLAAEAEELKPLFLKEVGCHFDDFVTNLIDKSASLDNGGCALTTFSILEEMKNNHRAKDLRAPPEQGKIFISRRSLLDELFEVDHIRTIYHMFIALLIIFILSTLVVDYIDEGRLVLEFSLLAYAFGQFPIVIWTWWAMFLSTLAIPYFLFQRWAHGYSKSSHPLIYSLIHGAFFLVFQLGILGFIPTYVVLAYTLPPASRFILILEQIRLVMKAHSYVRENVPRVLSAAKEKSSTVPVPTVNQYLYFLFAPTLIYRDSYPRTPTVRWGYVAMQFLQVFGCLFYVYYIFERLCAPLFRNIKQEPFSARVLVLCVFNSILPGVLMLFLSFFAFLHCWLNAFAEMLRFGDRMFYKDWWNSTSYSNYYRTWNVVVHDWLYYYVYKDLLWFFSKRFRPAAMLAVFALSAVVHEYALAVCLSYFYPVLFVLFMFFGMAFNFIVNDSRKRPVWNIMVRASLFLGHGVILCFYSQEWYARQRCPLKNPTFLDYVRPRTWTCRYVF
Assay: Inhibition of enzymatic esterification of cholesterol (ACAT) in rat adrenal supernatant containing the microsomal fraction
Format: biochemical
Conditions: final concentration of test compound 5.2 μg./ml., 14C-oleoyl CoA, 37° C., read-out: % INHIBITION (percent inhibition of the ACAT enzyme as compared to control values)
Procedure: The compounds of the present invention were tested for their ability to inhibit the enzymatic esterification of cholesterol according to the following procedure:
Rat adrenals were homogenized in 0.2M monobasic potassium phosphate buffer, pH 7.4, and centrifuged at 1,000 times gravity for 15 minutes at 5° C. The supernatant, containing the microsomal fraction, served as the source of the cholesterol-esterifying enzyme, fatty acyl CoA:cholesterol acyl transferase (ACAT). A mixture comprising 50 parts of adrenal supernatant, 10 parts of albumin (BSA) (50 mg./ml.), 20 parts of oleoyl CoA (^14 C-0.4 μCi), 3 parts of test compound, and 500 parts of buffer was pre-incubated at 37° C. for 10 minutes. After treatment with 20 parts of oleoyl CoA (^14 C-0.4 μCi), the mixture was incubated at 37° C. for 10 minutes. A control mixture, omitting the test compound, was prepared and treated in the same manner. The lipids from the incubation mixture were extracted into an organic solvent and separated by thin-layer chromatography. The cholesterol ester fraction was counted in a scintillation counter. This procedure is a modification of that described by Hashimoto, et al., Life Scie., 12 (Part II), 1-12 (1973).
The results of this test on representative compounds of this invention appear in Table I. The final concentration of the test compound was 5.2 μg./ml., and effectiveness of the compound is expressed as percent inhibition of the ACAT enzyme as compared to control values.

Row | SMILES | inhibition at 5.2 µg/mL [%]
1 | O=C(C=C1c2ccccc2C=Cc2ccccc21)Nc1ccc(C(=O)O)cc1 [4-(5H-Dibenzo[a,d]cycloheptene-Δ^5,α -acetamido) benzoic acid] | 47
2 | O=C(CC1c2ccccc2Sc2ccccc21)Nc1ccc(C(=O)O)cc1 [4-[Thioxanthene-9-acetamido]benzoic acid, 4-[(9-Thioxanthenyl)acetamido]benzoic acid] | 37
3 | CCOC(=O)c1ccc(NC(=O)C=C2c3ccccc3C=Cc3ccccc32)cc1 [Ethyl 4-(5H-dibenzo[a,d]cycloheptene-Δ^5,α -acetamido) benzoate] | 20
4 | CCOC(=O)c1ccc(NC(=O)CC2c3ccccc3Sc3ccccc32)cc1 [Ethyl 4-[(9-thioxanthenyl)acetamido]benzoate] | 9
5 | O=C(C=C1c2ccccc2CCc2ccccc21)Nc1ccc(C(=O)O)cc1 [p-(10,11-Dihydro-5H-dibenzo[a,d]cycloheptene-Δ^5,α -acetamido)benzoic acid] | 51
